Reference: ChEMBL document CHEMBL1138537, “Small-molecule scaffolds for CYP51 inhibitors identified by high-throughput screening and defined by X-ray crystallography” (Antimicrob Agents Chemother, 2007)

Target: Sterol 14alpha-demethylase (Mycobacterium tuberculosis, UniProt P9WPP9, F78L)

## O=C(Nc1ccncc1)C(NS(=O)(=O)c1cccc2nsnc12)c1ccccc1 (stereo unspecified)
  Kd: 23.2 µM
